EC50 and Fold shift data for three compounds are collected here from PMC12888856 (Antimicrobial Agents and Chemotherapy, 2025).

Common to all, as to type: cell-based, Influenza A virus
In assay [1] the test system is Baloxavir-resistant A/Puerto Rico/8/1934 (PA I38T).
Assay [2] concerns A/Malaya/302/1954 (H1N1). The assay is described as follows: microbe, parasite or virus in culture. As to conditions: read-out: EC50.
Assay [3] concerns Oseltamivir-resistant A/Weiss/1943 (NA H275Y).

pEC50: −log10 of the molar value.

The pEC50 is the EC50 on a negative log10 scale, so that one unit is a factor of ten. `O=C1c2c(O)c(=O)ccn2N([C@@H]2c3ccccc3SCc3c2ccc(F)c3F)[C@@H]2COCCN12` [Baloxavir, baloxavir, reference compound]: the pEC50 was 6.98 in assay [1], 8.96 in assay [2] and 9.38 in assay [3].

As for `CCOC(=O)C1=C[C@@H](OC(CC)CC)[C@H](NC(C)=O)[C@@H](N)C1` [Oseltamivir, oseltamivir, reference compound], the pEC50 in assay [1] was 5.55; in assay [2], 5.94; in assay [3], less than 4.11. Moreover, the Fold shift is listed as 2.89 in assay [1] and greater than 74.66 in assay [3].

For the compound `COC[C@@]1(C)COC[C@@H](COc2ccc(-c3cc(C(N)=O)c(O)nc3C(F)(F)F)cc2)O1` [VNT-101], the results for the pEC50 in assay [2] and in assay [3] were less than 4.30 and 6.93, respectively.
